Laboratory results from PubChem BioAssay (NCI).
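Growth conditions: 96-well plates. Treatment: test compound, 48 hours, 5 concentrations. Analysis: linear interpolation between bracketing concentrations; unreached endpoints set to highest concentration. Here, GI50 denotes the concentration required for 50% inhibition of growth. At the TGI there is no net growth.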

Experiments:
Assay in all cases: NCI tumour cell line growth inhibition, 48 h
[1] = tested on: MALME-3M melanoma
[2] = tested on: ACHN renal
[3] = tested on: OVCAR-3 ovarian
[4] = tested on: CCRF-CEM leukemia
[5] = tested on: LOX IMVI melanoma
[6] = tested on: HCC-2998 colon
[7] = tested on: T-47D breast
[8] = tested on: TK-10 renal
[9] = tested on: NCI/ADR-RES ovarian
[10] = tested on: MDA-MB-231 breast

Structure (SMILES)	GI50 [1] [µM]	TGI [1] [µM]	GI50 [2]	TGI [2]	GI50 [3]	TGI [3]	GI50 [4]	TGI [4]	GI50 [5]	TGI [5]	GI50 [6] [µM]	TGI [6] [µM]	GI50 [7]	TGI [7]	GI50 [8]	TGI [8]	GI50 [9]	TGI [9]	TGI [10]	GI50 [10]
COc1cc(/C=C/C(=O)N2CCN(C(=O)c3cc(OC)c(OC)c(OC)c3)CC2)ccc1OCCCOc1cc2c(cc1OC)C(=O)N1CCC[C@H]1C=N2	0.175	0.319	2.64 µM	> 35.3 µM	0.219 µM	0.504 µM	0.0832 µM	> 100 µM	0.215 µM	0.726 µM	0.296	0.838	0.15 µM	0.495 µM	0.45 µM	4.37 µM	11.4 µM	> 95 µM		
Nc1cc(=O)n(-c2ccccc2)c(=S)n1-c1ccccc1		> 100		> 100 µM		> 100 µM		> 100 µM		> 100 µM		> 100				> 100 µM				
c1ccc2c(c1)N=C(c1cccc3ccccc13)CC(c1ccc3c(c1)OCO3)S2 (stereo not drawn)		> 100		> 100 µM		> 100 µM		> 100 µM		> 100 µM		> 100				> 100 µM				
Cc1cc(C)nc(NS(=O)(=O)c2ccc(Nc3c4ccc(Cl)cc4nc4c(C(=O)NCCN(C)C)cccc34)cc2)n1		> 100		> 100 µM		> 100 µM		> 100 µM		> 100 µM		> 100				> 100 µM				
COC(=O)C(Cc1nc2ccccc2nc1C)/C(=N\NC(N)=O)C(=O)Nc1cccc([N+](=O)[O-])c1 (stereo not drawn)		> 100		> 100 µM		> 100 µM		> 100 µM		> 100 µM		> 100				> 100 µM				
CCNC(=O)O/N=C1\CCC2[C@@H]3CC=C4C[C@@H](OC5CCCCO5)CC[C@]4(C)C3CC[C@]12C (stereo partly drawn)				2.81 µM		10.7 µM						8.51				3.81 µM				
CC(C)(C)CC(N)=O				> 100 µM		> 100 µM		> 100 µM		> 100 µM		> 100		> 100 µM		> 100 µM		> 100 µM	> 100 µM	
COc1ccccc1NC(=O)c1nc2ccc([N+](=O)[O-])cc2nc1C		> 100		> 100 µM		> 100 µM		> 100 µM		> 100 µM		> 100				> 100 µM				
Cc1ccccc1-n1c2nc(=O)n(C)c(=O)c-2nc2ccccc21		16.8		21 µM		6.94 µM		40.4 µM		39.7 µM		24.2				35.2 µM				
O=C(/C(=C\c1ccc(Cl)cc1)c1ccccc1)c1ccccc1		> 100		> 100 µM				> 100 µM		> 100 µM		> 100				> 100 µM				
CN1CCN(C)C12C=CC=CC21CC1		> 100		> 100 µM		> 100 µM		> 100 µM		> 100 µM		> 100				> 100 µM				
O=C(COC(=O)c1cccc2c(=O)c3ccccc3[nH]c12)Nc1ccc(C(=O)O)cc1		> 100		> 100 µM		> 100 µM		> 100 µM		> 10 µM		> 100				> 10 µM				
CC(=O)c1cc(C(=O)c2ccc3c(c2)Sc2ccccc2N3)c2cc(C)ccn12	0.0429	> 100	0.0816 µM	> 100 µM	0.0323 µM	0.112 µM	0.257 µM	> 100 µM	0.0906 µM	> 100 µM	0.247	20.6			> 100 µM	> 100 µM	0.0369 µM	> 100 µM	> 100 µM	0.348 µM
Ic1cc2c(cc1C1SCCCS1)OCO2		> 100		> 100 µM		> 100 µM		> 100 µM		> 100 µM		> 100				> 100 µM				
CC1(C)[C@@H](OC(=O)CCC(=O)O)CC[C@]2(C)[C@H]3C(=O)C=C4[C@@H]5C[C@@](C)(C(=O)O)CC[C@]5(C)CC[C@@]4(C)[C@]3(C)CC[C@@H]12	90.8	128	63 µM	114 µM	50.4 µM	62.9 µM	52.4 µM	78.3 µM			56.1	80.5			65.6 µM	124 µM	81.2 µM	146 µM	171 µM	78.8 µM
NCCNCc1c2ccccc2c(CNCCN)c2ccccc12		29.8		> 100 µM		70.8 µM		86.2 µM				23.3				> 100 µM				
COC1=CC(c2ccc[nH]2)=N/C1=C\c1[nH]c(C)c(C(=O)CCCCC(=O)Oc2ccc3c(c2)CCC2C3CC[C@]3(C)[C@@H](O)CC[C@@H]23)c1C (stereo partly drawn)			5.14 µM	> 100 µM	> 100 µM	> 100 µM	0.668 µM	> 100 µM			> 100	> 100	1.39 µM	4.25 µM	33.8 µM	> 100 µM	> 100 µM	> 100 µM	8.04 µM	2 µM
CC(=O)NC1C(OCc2ccccc2)OC(COC(=O)CCCCCCCCCCNc2ccc([N+](=O)[O-])c3[nH]c4ccccc4c(=O)c23)C(O)C1OC(C)C(=O)NC(C)C(=O)NC(CCC(N)=O)C(=O)OCc1ccccc1 (stereo not drawn)				> 100 µM		> 100 µM				> 100 µM		> 100				> 100 µM				
NCC1OC(OC2C(CO)OC(OC3C(O)C(N)CC(N)C3OC3OC(CO)C(O)CC3N)C2O)C(N)C(O)C1OC1OC(CO)C(O)C(O)C1O (stereo not drawn)			> 50 µg/mL	> 50 µg/mL	> 50 µg/mL	> 50 µg/mL	> 50 µg/mL	> 50 µg/mL	> 50 µg/mL	> 50 µg/mL			> 50 µg/mL	> 50 µg/mL	> 50 µg/mL	> 50 µg/mL	> 50 µg/mL	> 50 µg/mL	> 50 µg/mL	> 50 µg/mL
CC1=CC(N2C(=O)C(C)=CC2O)NC1=O (stereo not drawn)		> 100				> 100 µM				> 100 µM		> 100				> 100 µM				
COc1cc([N+](=O)[O-])c(OC)cc1-c1nc2sc(Cl)cn2c1/C=N/NC1=NCCN1			1.32 µM	2.6 µM	0.882 µM	2.62 µM			1.74 µM	3.25 µM	0.597	1.22			1.89 µM	3.36 µM	> 100 µM	> 100 µM	3.18 µM	1.49 µM

Structure (SMILES)	GI50 [1] [µM]	TGI [1] [µM]	GI50 [2]	TGI [2]	GI50 [3]	TGI [3]	GI50 [4]	TGI [4]	GI50 [5]	TGI [5]	GI50 [6] [µM]	TGI [6] [µM]	GI50 [7]	TGI [7]	GI50 [8]	TGI [8]	GI50 [9]	TGI [9]	TGI [10]	GI50 [10]
COc1ccc2nc3cc(Cl)ccc3c(Sc3ccc([N+](=O)[O-])cc3)c2c1	> 100	> 100		> 10 µM	> 100 µM	> 100 µM	> 100 µM	> 100 µM	> 100 µM	> 100 µM		> 10			> 100 µM	> 100 µM				
CS(=O)(=O)CC(=O)c1ccccc1		> 100		> 100 µM		> 100 µM		> 100 µM		> 100 µM		> 100		> 100 µM		> 100 µM		> 100 µM		
Cc1ccc2c(c1)S(=O)(=O)c1ccc3ccccc3c1N2				> 100 µM		> 100 µM		> 100 µM		> 100 µM		> 100		> 100 µM		> 100 µM		> 100 µM	> 100 µM	
CC1(c2ccccc2)CC(c2cccc([N+](=O)[O-])c2)=NO1 (stereo not drawn)		> 100		> 100 µM		> 100 µM						> 100				> 100 µM				
Cc1ccc(S(=O)OCC23CC4CC(CC(C4)C2)C3)cc1 (stereo not drawn)		> 100		> 100 µM		> 100 µM				> 100 µM		> 100				> 100 µM				
CC(=O)Nc1ccc(COC(O)CN2CCCCC2)cc1[N+](=O)[O-] (stereo not drawn)		> 100		> 100 µM		> 100 µM		> 100 µM				> 100		> 100 µM		> 100 µM		> 100 µM	> 100 µM	
O=C1CCSC2=C1SCc1sccc12		> 100				> 100 µM		> 100 µM		> 100 µM		> 100				> 100 µM				
COc1cc(-c2c(C#N)c(N)nc(N3CCOCC3)c2C#N)cc(OC)c1OC			> 100 µM	> 100 µM	68.8 µM	> 100 µM	> 100 µM	> 100 µM	79.7 µM	> 100 µM			15.1 µM	> 100 µM	> 100 µM	> 100 µM	> 100 µM	> 100 µM	78.9 µM	22.6 µM
OCCN1CCN2C=C(C3CCCC4N(CCO)CCN34)CCC21 (stereo not drawn)		> 100		> 100 µM		> 100 µM		36.3 µM		> 100 µM		> 100				> 100 µM				
COc1ccc(C(=O)C(c2ccc(OCc3ccccc3)cc2)c2ccc(OCc3ccccc3)cc2)cc1		> 100		> 100 µM		> 100 µM		> 100 µM		> 100 µM		> 100				> 100 µM				
O=C(Nc1ccccc1)c1cc(S(=O)(=O)Nc2nc3ccccc3o2)c(SCc2ccccc2)cc1Cl			18.2 µM	37 µM	19.9 µM	40 µM	11.4 µM	28.5 µM	20 µM	40.3 µM	18.7	34.8	22.5 µM	91.3 µM	13.9 µM	28.2 µM	26.1 µM	66.3 µM	42.4 µM	18.3 µM
NNC(=O)N/N=C1\C(=O)N(c2ccc(Cl)c(Cl)c2)C(=O)C(=O)C1c1nc2ccccc2s1 (stereo not drawn)		> 100		> 100 µM		> 100 µM		> 100 µM				> 100				> 100 µM				
OCc1ccc(N2CCc3ccccc3C2)cc1Cl	20.3	56.6	18.4 µM	> 78.6 µM	< 0.0161 µM	0.0389 µM	27.3 µM	99.6 µM	31.6 µM	> 100 µM	1.15	7.11					5.13 µM	39.8 µM	40.8 µM	12.4 µM
Cc1ccc(NC(=O)/C(Cl)=C(/Cl)C(=O)O)cc1		29.3		30.1 µM		32.4 µM		5.75 µM		30.9 µM		34.3				33 µM				
CC(=O)[CH-]C(=O)c1ccccc1.CC(=O)[CH-]C(=O)c1ccccc1.C[C@]12CCC(=O)C=C1CC[C@@H]1C2CC[C@@]2(C)C1CC[C@@H]2[O-].C[C@]12CCC(=O)C=C1CC[C@@H]1C2CC[C@@]2(C)C1CC[C@@H]2[O-].Cl.[Ti+4] (stereo partly drawn)	20.1	46.8	17.2 µM	49.5 µM	13.2 µM	65.5 µM	23.8 µM	> 100 µM	16.9 µM	38.8 µM	21.8	42.2			29.4 µM	> 100 µM				
CC(C)NC(=O)CCN(C(=O)O)S(=O)(=O)c1ccc(NC(=O)c2ccccc2)cc1		> 100		> 100 µM		> 100 µM		> 63.4 µM		> 61.7 µM		> 100				> 100 µM				
COc1ccc(C2C=C(c3ccc4c(c3)OCO4)Oc3c2c(=O)oc2ccccc32)cc1OC (stereo not drawn)		> 100		> 100 µM		15.5 µM		> 100 µM		> 100 µM		2.26				> 78.1 µM		> 100 µM	> 100 µM	
N/N=c1\c2ccccc2c2cc3c(cc12)/c(=N/N)c1ccccc13		> 100		> 100 µM				> 100 µM				> 100								
O=S(=O)(/N=c1/scc(-c2ccccc2)n1-c1ccccc1)c1ccc(N2N=C3c4ccccc4CC3C2c2cccs2)cc1 (stereo not drawn)			42.5 µM	> 100 µM	> 100 µM	> 100 µM	50.3 µM	> 100 µM	32.4 µM	> 100 µM	32.8	81.3	> 100 µM	> 100 µM	32.7 µM	75.3 µM	> 100 µM	> 100 µM	> 100 µM	52.1 µM
CC#CC1C2CCCC1(CSc1ccccc1)NC(=O)O2 (stereo not drawn)		> 100		> 100 µM		> 100 µM						> 100				> 100 µM				
Clc1ccc(-c2c(C3=NCCCN3)nnn2-c2ccccc2)cc1		> 100		> 100 µM		> 100 µM		> 100 µM		55.7 µM		> 100				> 100 µM				
